# Laboratory results from US9078890B2, “Use of koumine and its homologues in preparation of medicament for treatment of autoimmune diseases of involved bones and joints” (priority 2011, dated 2015).
# Marks after values point to notes of the source that are not given here.
# Experiments:
# [1] = system: type II collagen-induced arthritis rat; test: Type II collagen-induced arthritis rat: paw swelling degree and arthritis index; assay type: in vivo, Wistar rat; settings: koumine 0.6, 3, 15 mg/kg intragastric; Day 5, Day 10 of intervention; dose dependent
# Procedure: (§1) Under aseptic conditions, 10 mg chicken type II collagen protein was fully mixed with 5 ml 10 mM glacial acetic acid solution, and stirred overnight in refrigerator at 4° C. to fully dissolve it. It was mixed with complete Freund's adjuvant in equal volume in ice bath to fully emulsify into an emulsion with a collagen concentration of 1 mg/ml.
# (§2) Wistar rats are divided into a modeling group and a false modeling group. After the modeling group rats were narcotized with intraperitoneal injection of pentobarbital, the above emulsion was injected intracutaneously at 3 to 4 positions at back, tail root or the like, 0.3 ml for each, an primary immunity was carried out. After 7 days, a secondary immunity was carried out, the emulsifying agent complete Freund's adjuvant of initial immunity was replaced with incomplete Freund's adjuvant, 0.1 ml the emulsion was injected under sevoflurane inhalation anesthesia wherein the injection position is different from the last time. In false modeling group, the emulsion was replaced with solvent glacial acetic acid solution.
# (§3) Successfully modeled rat in the modeling group were randomly divide into 5 groups: low, middle, high-dose koumine treatment group, positive control group, negative control group, 10 rats for each group. […]
# [2] = system: adjuvant arthritis mice; test: Adjuvant arthritis mice: condition and body weight; assay type: in vivo, Kunming mice
# Procedure: BCG was inactivated in water bath at 80° C., and fully emulsified along with complete Freund's adjuvant to form complete Freund's adjuvant emulsion containing 5 mg/ml BCG, preserved at 4° C., and shake well before use. The Kunming mice were divided into a modeling group and a false modeling group. According to the method recited in the literature [Rasool M, Sabina E P, Lavanya B. Anti-inflammatory effect of Spirulina fusiformis on adjuvant-induced arthritis in mice. Biol Pharm Bull. 2006, 29(12):2483-7], for the modeling group, the model was prepared by intradermal injection of 20 ul the emulsion under the plantar surface of right paws after the mice was narcotized; for the false modeling group, the emulsion was replaced with physiological saline. For the modeling group, the animals were screened on Day 8 after injection: the mice with the injected paw thickness increased >0.5 mm and thermal hyperalgesia occurred (paw thermal withdrawal latency <8 second) were selected as experimental subjects. The selected mice were divided into 5 groups randomly: low, middle, high dose treatment group (0.8, 4, 20 mg/kg); indomethacin positive control group (10 mg/kg); negative control group (physiological saline), each comprising 12 animals. […]
# [3] = system: type II collagen-induced arthritis rat; test: Type II collagen-induced arthritis rat: joint pathological change, X-ray; assay type: in vivo, Wistar rat; settings: high dose and middle dose of koumine (15 and 3 mg/kg); 9 days after intervention
# Procedure: as §1, §2, §3
# [4] = system: type II collagen-induced arthritis rat; test: Type II collagen-induced arthritis rat: thermal hyperalgesia (thermal withdrawal latency); assay type: in vivo, Wistar rat; settings: for Thermal stimulus withdrawal latency, Intervention Day 2: intervention Day 2, 1 hour after administration; for Thermal stimulus withdrawal latency, Intervention Day 4: intervention Day 4, 1 hour after administration; for Thermal stimulus withdrawal latency, Intervention Day 6: intervention Day 6, 1 hour after administration; for Thermal stimulus withdrawal latency, Intervention Day 8: intervention Day 8, 1 hour after administration; for Thermal stimulus withdrawal latency, Intervention Day 10: intervention Day 10, 1 hour after administration
# Procedure: as §1, §2
# Successfully modeled rat in the modeling group were randomly divide into 5 groups: low, middle, high-dose koumine treatment group, positive control group, negative control group, 10 rats for each group. Beginning from Day 21 after modeling, corresponding intervention was carried out as following in 10 days continuously: 0.6, 3, 15 mg/kg koumine were intragastrically administrated to the low, middle, high-dose koumine treatment group respectively, 1 time every day; 1 mg/kg amethopterin was administrated to the positive control group, 1 time every 3 days, equal volume of physiological saline was administrated for the remained days; equal volume of physiological saline was administrated to the negative control group.
# 1 hour after intragastric administration, the thermal withdrawal latency of each group was determined by the photo-thermal dolorimeter; the mechanical pain threshold of rats of each group was determined by Von-frey electromechanical pain threshold detector, thus the condition of thermal hyperalgesia and mechanical hyperalgesia of rats of each group was observed.
# [5] = koumine 0.6 mg/kg intragastric once daily
# [6] = koumine 3 mg/kg intragastric once daily
# [7] = koumine 15 mg/kg intragastric once daily
smiles,measurement,setting,value
C=CC12CN(C)C3CC14C(=Nc1ccccc14)C1CC2C3CO1 (stereo not drawn) [Koumine],Effect on arthritis index (FIG. 7),[1],reduces arthritis index
same,"Effect on paw swelling, paw volume (FIG. 6)",[1],relieves the paw swelling
same,Effect on body weight of adjuvant arthritis mice (FIG. 1),"[2]; koumine 0.8, 4, 20 mg/kg intragastric once daily, Day 4-18 after inflammation",dose dependent antagonistic effect on body weight reducing
same,Food intake and activity after inflammation,"[2]; koumine treatment group 0.8, 4, 20 mg/kg intragastric, negative control decreased obviously",no obvious change was observed
same,"Joint pathological change, X-ray images (FIG. 8)",[3],relieve the bone destruction of ankle joint
same,"Thermal stimulus withdrawal latency, Before intervention",[4]; [5],7.50 ± 1.34 s
same,"Thermal stimulus withdrawal latency, Intervention Day 2",[4]; [5],7.81 ± 1.39 s
same,"Thermal stimulus withdrawal latency, Intervention Day 4",[4]; [5],8.42 ± 1.24 s
same,"Thermal stimulus withdrawal latency, Intervention Day 6",[4]; [5],10.30 ± 0.73**^★ second
same,"Thermal stimulus withdrawal latency, Intervention Day 8",[4]; [5],8.96 ± 0.81 s
same,"Thermal stimulus withdrawal latency, Intervention Day 10",[4]; [5],8.62 ± 2.21 s
same,"Thermal stimulus withdrawal latency, Before intervention",[4]; [6],8.03 ± 1.98 s
same,"Thermal stimulus withdrawal latency, Intervention Day 2",[4]; [6],8.07 ± 1.86 s
same,"Thermal stimulus withdrawal latency, Intervention Day 4",[4]; [6],9.16 ± 1.18 s
same,"Thermal stimulus withdrawal latency, Intervention Day 6",[4]; [6],11.18 ± 2.03**^★ second
same,"Thermal stimulus withdrawal latency, Intervention Day 8",[4]; [6],10.40 ± 1.74 s
same,"Thermal stimulus withdrawal latency, Intervention Day 10",[4]; [6],11.62 ± 1.21**^★ second
same,"Thermal stimulus withdrawal latency, Before intervention",[4]; [7],7.68 ± 2.48 s
same,"Thermal stimulus withdrawal latency, Intervention Day 2",[4]; [7],9.41 ± 0.68 s
same,"Thermal stimulus withdrawal latency, Intervention Day 4",[4]; [7],10.82 ± 1.07 s
same,"Thermal stimulus withdrawal latency, Intervention Day 6",[4]; [7],12.98 ± 1.13**^★ second
same,"Thermal stimulus withdrawal latency, Intervention Day 8",[4]; [7],13.44 ± 1.72 s
same,"Thermal stimulus withdrawal latency, Intervention Day 10",[4]; [7],13.87 ± 1.26**^★ second
same,Effect on thermal stimulus withdrawal latency (summary of Table 3),"[4]; koumine 0.6, 3, 15 mg/kg intragastric, dose-effect relationship",can significantly extend the thermal stimulus withdrawal latency
